Patent US6599930B2, “Coniosetin and derivatives thereof, process for the preparation and the use thereof” (Aventis Pharma Deutschland GmbH, priority 2000, dated 2003)
In brackets after ≈: the same amount, converted by molar mass. Read-outs that look alike come from different tables or passages of the source.

Key:
[1] = Solubility; type: physicochemical
[2] = system: bacteria; experiment: Antibacterial effect, general statements; type: cell-based; conditions: general statement
[3] = system: Enterococcus faecium; experiment: MIC, serial dilution test; type: cell-based; conditions: teiR vanR eryR tetR
Source text: (§1) Table 1 summarizes the minimum inhibitory concentrations (MIC) of coniosetin by way of example.

[4] = system: S. mitis; experiment: MIC, serial dilution test; type: cell-based; conditions: Streptococcus mitis
Source text: as §1

[5] = system: Staphylococcus aureus; experiment: MIC, serial dilution test; type: cell-based
Source text: as §1

[6] = system: S. pneumoniae; experiment: MIC, serial dilution test; type: cell-based; conditions: Streptococcus pneumoniae
Source text: as §1

[7] = system: S. sanguis; experiment: MIC, serial dilution test; type: cell-based; conditions: ery R
Source text: as §1

[8] = system: S. epidermidis; experiment: MIC, serial dilution test; type: cell-based; conditions: Staphylococcus epidermidis
Source text: as §1

[9] = system: Escherichia coli; experiment: MIC, serial dilution test; type: cell-based; conditions: 18 h
Source text: as §1

[10] = system: S. pyogenes; experiment: MIC, serial dilution test; type: cell-based; conditions: Streptococcus pyogenes
Source text: as §1

[11] = system: Enterococcus faecalis; experiment: MIC, serial dilution test; type: cell-based
Source text: as §1

[12] = system: Streptococcus gr. G; experiment: MIC, serial dilution test; type: cell-based
Source text: as §1

[13] = system: S. agalactiae; experiment: MIC, serial dilution test; type: cell-based; conditions: Streptococcus agalactiae, ery R
Source text: as §1

[14] = Stability in solution; type: physicochemical
[15] = Tolerability; conditions: at the effective concentration and at higher concentrations
[16] = system: Staphylococcus aureus; experiment: Agar diffusion test; type: cell-based; conditions: 16 h, S. aureus, 37° C., read-out: Zone of inhibition, diameter
Experimental: (§2) Agar plates were prepared with a 2 ml inoculum of Staphylococcus aureus in 200 ml of agar solution, a 2 ml inoculum of Escherichia coli in 200 ml of agar; a 2 ml inoculum of Candida albicans in 200 ml of agar solution; a 1 ml inoculum of Aspergillus niger in 200 ml of agar solution and a 3 ml inoculum of Streptomyces murinus in 200 ml of agar solution. The coniosetin was applied in a 10 mM solution to disks with a diameter of 6 mm and placed on the agar plate. The inoculated Staphylococcus, E. coli and Candida plates were incubated at 37° C. for 16 hours, the A. niger plate was incubated at 28° C. for 40 hours, and the Streptomyces plate was incubated at 28° C. for 16 hours. Zones of inhibition with the following diameters (mm) were then observed.

[17] = system: Escherichia coli; experiment: Agar diffusion test; type: cell-based; conditions: E. coli, 37° C., 16 hours
Experimental: as §2

[18] = system: Streptomyces murinus; experiment: Agar diffusion test; type: cell-based; conditions: 16 h, S. murinus, 28° C., read-out: Zone of inhibition, diameter
Experimental: as §2

[19] = system: Candida albicans; experiment: Agar diffusion test; type: cell-based; conditions: for zone of inhibition at 10000 µM: 16 h, C. albicans, 37° C., 16 hours, read-out: Zone of inhibition, diameter
Experimental: as §2

[20] = system: Aspergillus niger; experiment: Agar diffusion test; type: cell-based; conditions: for zone of inhibition at 10000 µM: 40 h, A. niger, 28° C., 40 hours, read-out: Zone of inhibition, diameter
Experimental: as §2

[21] = system: bacteria; conditions: as described in the cited literature; cited from earlier work
[22] = 10 μl of 10 mM solution on 6 mm disk
[23] = 20 μl of 10 mM solution on 6 mm disk
[24] = 40 μl of 10 mM solution on 6 mm disk
[25] = compared with the antibacterial effect (Example 8)

C/C=C/C=C/C1C(C)=CC2CC(C)CCC2C1(C)/C(O)=C1\C(=O)NC(C(C)O)C1=O (centres unmarked) [coniosetin]
Solubility in organic solvents ([1]; organic solvents of medium polarity and above): soluble
Solubility in water ([1]; water): low solubility
Antibacterial effect [2]: very good antibacterial activity
MIC ([3]; 24 h): 1.2 µg/mL (≈ 2.9 µM)
MIC ([3]; 48 h): 2.5 µg/mL (≈ 6.05 µM)
MIC ([3]; after 18 h): 1.2 µg/mL (≈ 2.9 µM)
MIC ([4]; 18 h, ery R, after 18 h): 2.5 µg/mL (≈ 6.05 µM)
MIC ([4]; 18 h, ery S, after 18 h): 1.2 µg/mL (≈ 2.9 µM)
MIC ([4]; 24 h, ery R): 2.5 µg/mL (≈ 6.05 µM)
MIC ([4]; 24 h, ery S): 2.5 µg/mL (≈ 6.05 µM)
MIC ([4]; 48 h, ery R): 2.5 µg/mL (≈ 6.05 µM)
MIC ([4]; 48 h, ery S): 2.5 µg/mL (≈ 6.05 µM)
MIC ([5]; 18 h, S. aureus, oflR oxaR eryR tetR, after 18 h): 0.6 µg/mL (≈ 1.45 µM)
MIC ([5]; 18 h, S. aureus, oxa R ery R, after 18 h): 0.3 µg/mL (≈ 0.725 µM)
MIC ([5]; 18 h, S. aureus, oxa S ery R (first listed strain), after 18 h): 0.3 µg/mL (≈ 0.725 µM)
MIC ([5]; 18 h, S. aureus, oxa S ery R (second listed strain), after 18 h): 0.6 µg/mL (≈ 1.45 µM)
MIC ([5]; 18 h, S. aureus, oxaR eryR tetR, after 18 h): 0.3 µg/mL (≈ 0.725 µM)
MIC ([5]; 18 h, ery S, after 18 h): 0.3 µg/mL (≈ 0.725 µM)
MIC ([5]; 24 h, S. aureus, oflR oxaR eryR tetR): 0.6 µg/mL (≈ 1.45 µM)
MIC ([5]; 24 h, S. aureus, oxa R ery R): 0.3 µg/mL (≈ 0.725 µM)
MIC ([5]; 24 h, S. aureus, oxa S ery R (first listed strain)): 0.3 µg/mL (≈ 0.725 µM)
MIC ([5]; 24 h, S. aureus, oxa S ery R (second listed strain)): 0.6 µg/mL (≈ 1.45 µM)
MIC ([5]; 24 h, S. aureus, oxaR eryR tetR): 0.3 µg/mL (≈ 0.725 µM)
MIC ([5]; 24 h, ery S): 0.3 µg/mL (≈ 0.725 µM)
MIC ([5]; 48 h, S. aureus, oflR oxaR eryR tetR): 0.6 µg/mL (≈ 1.45 µM)
MIC ([5]; 48 h, S. aureus, oxa R ery R): 0.3 µg/mL (≈ 0.725 µM)
MIC ([5]; 48 h, S. aureus, oxa S ery R (first listed strain)): 0.3 µg/mL (≈ 0.725 µM)
MIC ([5]; 48 h, S. aureus, oxa S ery R (second listed strain)): 0.6 µg/mL (≈ 1.45 µM)
MIC ([5]; 48 h, S. aureus, oxaR eryR tetR): 0.3 µg/mL (≈ 0.725 µM)
MIC ([5]; 48 h, ery S): 0.6 µg/mL (≈ 1.45 µM)
MIC ([6]; 18 h, ery R (first listed strain), after 18 h): 0.6 µg/mL (≈ 1.45 µM)
MIC ([6]; 18 h, ery R (second listed strain), after 18 h): 0.6 µg/mL (≈ 1.45 µM)
MIC ([6]; 18 h, ery R (third listed strain), after 18 h): 0.6 µg/mL (≈ 1.45 µM)
MIC ([6]; 18 h, ery R pen R (first listed strain), after 18 h): 0.6 µg/mL (≈ 1.45 µM)
MIC ([6]; 18 h, ery R pen R (second listed strain), after 18 h): 0.6 µg/mL (≈ 1.45 µM)
MIC ([6]; 18 h, ery S pen R, after 18 h): 0.6 µg/mL (≈ 1.45 µM)
MIC ([6]; 18 h, ery S, after 18 h): 0.6 µg/mL (≈ 1.45 µM)
MIC ([6]; 24 h, ery R (first listed strain)): 0.6 µg/mL (≈ 1.45 µM)
MIC ([6]; 24 h, ery R (second listed strain)): 0.6 µg/mL (≈ 1.45 µM)
MIC ([6]; 24 h, ery R (third listed strain)): 0.6 µg/mL (≈ 1.45 µM)
MIC ([6]; 24 h, ery R pen R (first listed strain)): 0.6 µg/mL (≈ 1.45 µM)
MIC ([6]; 24 h, ery R pen R (second listed strain)): 0.6 µg/mL (≈ 1.45 µM)
MIC ([6]; 24 h, ery S): 0.6 µg/mL (≈ 1.45 µM)
MIC ([6]; 24 h, ery S pen R): 1.2 µg/mL (≈ 2.9 µM)
MIC ([6]; 48 h, ery R (first listed strain)): 0.6 µg/mL (≈ 1.45 µM)
MIC ([6]; 48 h, ery R (second listed strain)): 0.6 µg/mL (≈ 1.45 µM)
MIC ([6]; 48 h, ery R (third listed strain)): 1.2 µg/mL (≈ 2.9 µM)
MIC ([6]; 48 h, ery R pen R (first listed strain)): 0.6 µg/mL (≈ 1.45 µM)
MIC ([6]; 48 h, ery R pen R (second listed strain)): 0.6 µg/mL (≈ 1.45 µM)
MIC ([6]; 48 h, ery S): 0.6 µg/mL (≈ 1.45 µM)
MIC ([6]; 48 h, ery S pen R): 1.2 µg/mL (≈ 2.9 µM)
MIC ([7]; 24 h): 1.2 µg/mL (≈ 2.9 µM)
MIC ([7]; 48 h): 2.5 µg/mL (≈ 6.05 µM)
MIC ([7]; after 18 h): 1.2 µg/mL (≈ 2.9 µM)
MIC ([8]; 18 h, oxa R ery R, after 18 h): 0.6 µg/mL (≈ 1.45 µM)
MIC ([8]; 18 h, oxa S ery R, after 18 h): 0.3 µg/mL (≈ 0.725 µM)
MIC ([8]; 24 h, oxa R ery R): 1.2 µg/mL (≈ 2.9 µM)
MIC ([8]; 24 h, oxa S ery R): 0.3 µg/mL (≈ 0.725 µM)
MIC ([8]; 48 h, oxa R ery R): 1.2 µg/mL (≈ 2.9 µM)
MIC ([8]; 48 h, oxa S ery R): 0.3 µg/mL (≈ 0.725 µM)
MIC [9]: > 40 µg/mL
MIC ([10]; 18 h, ery R, after 18 h): 1.2 µg/mL (≈ 2.9 µM)
MIC ([10]; 18 h, ery S, after 18 h): 0.6 µg/mL (≈ 1.45 µM)
MIC ([10]; 24 h, ery R): 1.2 µg/mL (≈ 2.9 µM)
MIC ([10]; 24 h, ery S): 1.2 µg/mL (≈ 2.9 µM)
MIC ([10]; 48 h, ery R): 1.2 µg/mL (≈ 2.9 µM)
MIC ([10]; 48 h, ery S): 1.2 µg/mL (≈ 2.9 µM)
MIC ([11]; ery R, 24 h): 2.5 µg/mL (≈ 6.05 µM)
MIC ([11]; ery R, 48 h): 2.5 µg/mL (≈ 6.05 µM)
MIC ([11]; ery R, after 18 h): 2.5 µg/mL (≈ 6.05 µM)
MIC ([11]; ery S, 24 h, read-out: MIC): 2.5 µg/mL (≈ 6.05 µM)
MIC ([11]; ery S, 48 h, read-out: MIC): 2.5 µg/mL (≈ 6.05 µM)
MIC ([11]; ery S, after 18 h, read-out: MIC): 2.5 µg/mL (≈ 6.05 µM)
MIC ([12]; 18 h, ery R, after 18 h): 0.6 µg/mL (≈ 1.45 µM)
MIC ([12]; 18 h, ery S, after 18 h): 1.2 µg/mL (≈ 2.9 µM)
MIC ([12]; 24 h, ery R): 0.6 µg/mL (≈ 1.45 µM)
MIC ([12]; 24 h, ery S): 1.2 µg/mL (≈ 2.9 µM)
MIC ([12]; 48 h, ery R): 0.6 µg/mL (≈ 1.45 µM)
MIC ([12]; 48 h, ery S): 1.2 µg/mL (≈ 2.9 µM)
MIC ([13]; 24 h): 2.5 µg/mL (≈ 6.05 µM)
MIC ([13]; 48 h): 2.5 µg/mL (≈ 6.05 µM)
MIC ([13]; after 18 h): 2.5 µg/mL (≈ 6.05 µM)
Stability ([14]; neutral and weakly acidic media): Stable
Stability ([14]; strongly acidic and strongly alkaline solution): unstable
Tolerability [15]: well-tolerated
zone of inhibition at 10000 µM [16, 22]: 13 mm
zone of inhibition at 10000 µM [16, 23]: 14.5 mm
zone of inhibition at 10000 µM [16, 24]: 15.5 mm
Zone of inhibition, diameter [17, 23]: 0 mm
Zone of inhibition, diameter [17, 24]: 0 mm
zone of inhibition at 10000 µM ([17]; Escherichia coli, 10 μl of 10 mM solution on 6 mm disk, read-out: Zone of inhibition, diameter): 0 mm
zone of inhibition at 10000 µM [18, 22]: 0 mm
zone of inhibition at 10000 µM [18, 23]: 9 mm
zone of inhibition at 10000 µM [18, 24]: 10 mm
zone of inhibition at 10000 µM [19, 22]: 9 mm
zone of inhibition at 10000 µM [19, 23]: 10 mm
zone of inhibition at 10000 µM [19, 24]: 10.5 mm
Inhibitory effect on yeasts [19, 25]: inhibitory effect—although weaker
zone of inhibition at 10000 µM [20, 22]: 0 mm
zone of inhibition at 10000 µM [20, 23]: 0 mm
zone of inhibition at 10000 µM [20, 24]: 8 mm
Inhibitory effect on fungi [20, 25]: inhibitory effect—although weaker

harzianic acid
Antibacterial activity [21]: very low activity

CCCCCCC/C=C/C(=O)N1C(O)=C(C(C)=O)C(=O)[C@H]1CC(C)C [reutericyclin]
Antibacterial activity [21]: weak antibacterial activity
